Assay results: patent US20250388574A1, “HETEROCYCLIC COMPOUNDS AS TRIGGERING RECEPTOR EXPRESSED ON MYELOID CELLS 2 AGONISTS AND METHODS OF USE” (AMGEN INC., priority 2020, published 2025)
Where two headings read alike, the source gives them in different places.

Molecular target: hTREM2 (Homo sapiens, UniProt Q9NZC2)
Experiment: Phospho-Syk AlphaScreen/AlphaLISA assay in TREM2 and DAP12 overexpressing HEK293 cells (Example A1)
Assay type: cell-based
Parameters: expressed in transfected cells
Protocol: Pharmacological measurements of TREM2 signaling through DAP12 were made with TREM2 and DAP12 overexpressing HEK293 cells stable cell lines that had been single-cell cloned (“TREM2/DAP12-HEK”). The readout of the TREM2 signaling utilized Perkin Elmer AlphaScreen/AlphaLISA technology monitoring the phosphorylation levels of the Syk kinase. TREM2/DAP12-HEK cell lines were cultured in DMEM-F12 (Corning 10-092-CM) supplemented with 1× Penicillin/Streptomycin (Corning 30-002-CI), 1× GlutaMAX (Gibco 35050-061), and 10% Fetal Bovine Serum (Life Technologies 10099) referred to as “HEK Culture Medium”. Suspensions of TREM2/DAP12-HEK cells were prepared in HEK Culture Medium and dispensed into 384-well poly-D-lysine coated microplates (Corning 354661) at a density of 20,000 cells/well using a Multidrop Combi peristaltic microplate dispenser (Thermo), 25 uL volume of cell suspension/well. Plates containing cells were then incubated for 20 hours in a humidified cell culture incubator at 37° C. with 5% CO2 (Thermo). […] Assay Buffer contained diluted test articles (in 1% final DMSO concentration for compounds) or 100 nM anti-human/mouse TREM2 antibody (R&D Systems MAB17291) as a positive control, 100 nM or rat IgG2B isotype Ab as a negative control (R&D Systems MAB0061). Incubated the plates with test articles and controls for 45 minutes at room temperature and then aspirated/removed the medium from each well of the plates. Used a Multidrop Combi peristaltic liquid handler (Thermo) to dispense 15 uL/well of “Cell Lysis Immunoassay Buffer”. The Cell Lysis Immunoassay Buffer contained M-PER Mammalian Protein Extraction Reagent (Pierce/ThermoFisher 78505), 1× Halt Phosphatase Inhibitor Cocktail (ThermoFisher #78427), 0.1875 nM anti-phospho-Syk ([…]/526) ([…]) rabbit mAb (Cell Signaling Technologies catalog #2710), and 1.5 nM biotinylated Mouse anti-human Syk (4D10) antibody (BD Biosciences, catalog #624008). Incubated plates for 1 hour at room temperature after the addition of the Cell Lysis Immunoassay Buffer. Used the Multidrop Combi liquid handler to dispense 15 μL of AlphaScreen Acceptor Bead Solution containing 7.5 μg/mL anti-rabbit IgG (Fc specific) AlphaLISA Acceptor Beads (Perkin Elmer A[…]) in 1× Immunoassay buffer (Perkin Elmer A[…]) to each well of the microplates. Incubated plates for 2 hours at room temperature. Following the incubation with the AlphaLISA Acceptor Bead Solution, used a Multidrop Combi liquid handler (Thermo) to dispense 15 μL of AlphaScreen Donor Bead Solution containing 30 μg/mL of AlphaScreen Streptavidin Donor beads (Perkin Elmer 6760002B) in 1× Immunoassay buffer (Perkin Elmer A[…]) to each well of the microplates. Incubated microplates for 2 hours protected from light sources as the AlphaScreen reagents are light sensitive. Once the final incubation was completed, acquired AlphaScreen signal from the donor and acceptor beads using an Envision high throughput multi-modal microplate reader (Perkin Elmer) calibrated to the plate type with the AlphaScreen mirror and filter-set in 384-well mode, 680 nanometer excitation wavelength. The total measurement time per well was 550 milliseconds with a 180 millisecond excitation time. After reading the AlphaScreen signal for each well of the microplates, on a plate-by-plate basis, each raw test article well value (x) was normalized to a Percent of Control (“POC”) value using the following formula: […] Each plate contained 12 of each type of control wells that were used to generate the mean values. For concentration response curve analysis with test articles tested at various concentrations, the % of activation values were analyzed with 4 Parameter Logistic or Sigmoidal Dose-Response Models using GeneData Screener (GeneData, AG) or GraphPad Prism 7 (Graphpad Software, Inc.). […] This assay may be used to test any of the compounds described herein to assess and characterize a compound's ability to act as an agonist of TREM2.

[1] = HEK293 cells, read-out: hTREM2 EC50

Sequence of hTREM2 (Q9NZC2 19-230): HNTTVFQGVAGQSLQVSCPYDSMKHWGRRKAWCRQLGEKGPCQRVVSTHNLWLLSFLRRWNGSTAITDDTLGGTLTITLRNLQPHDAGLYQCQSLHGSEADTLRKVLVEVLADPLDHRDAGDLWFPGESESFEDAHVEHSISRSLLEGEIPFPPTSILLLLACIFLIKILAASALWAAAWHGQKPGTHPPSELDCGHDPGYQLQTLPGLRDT
Sequence of hTREM2 (O43914 22-113 partner): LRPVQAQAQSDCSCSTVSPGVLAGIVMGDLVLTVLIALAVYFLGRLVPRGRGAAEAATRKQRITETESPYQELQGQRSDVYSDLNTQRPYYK

Emax (HEK293 cells) | EC50 [1] [nM] | Molecule | EC50 (hTREM2 EC50, HEK293 cells) [nM]
++++ (Emax>300) | 50 to 500 | Cc1nc2cc(N3CCO[C@H](c4cccc(C(F)(F)F)c4)C3)nc(-c3ccc(Cl)cc3F)c2c(=O)n1C (single isomer, unassigned) [Example 92] | –
++++ (Emax>300) | < 50 | COc1cc([C@H]2CN(c3cc4nc(C)n(C)c(=O)c4c(-c4ccc(Cl)cc4F)n3)CCO2)ccn1 (single isomer, unassigned) [Example 82] | –
++++ (Emax>300) | 50 to 500 | Cc1nc([C@@H]2CN(c3cc4nc(C)n(C)c(=O)c4c(-c4ccc(Cl)cc4F)n3)CCO2)no1 [Example 200, (S)-5-(4-chloro-2-fluorophenyl)-2,3-dimethyl-7-(2-(5-methyl-1,2,4-oxadiazol-3-yl)morpholino)pyrido[4,3-d]pyrimidin-4(3H)-one] | –
++++ (Emax>300) | 500 to 3000 | Cc1nc2cc(N3CCC[C@H](N4CCCC4=O)C3)nc(-c3ccc(Cl)cc3F)c2c(=O)n1C [Example 232, (S)-5-(4-chloro-2-fluorophenyl)-2,3-dimethyl-7-(3-(2-oxopyrrolidin-1-yl)piperidin-1-yl)pyrido[4,3-d]pyrimidin-4(3H)-one] | –
++++ (Emax>300) | 500 to 3000 | Cc1nc2cc(N3CCO[C@H](c4ccc(Cl)cc4)C3)nc(-c3ccc(Cl)cc3F)c2c(=O)n1C (single isomer, unassigned) [Example 86] | –
++ (Emax>100 and ≤200) | 3000 to 100000 | Cc1nc2cc(N3CC[C@H](C(F)F)C3)nc(-c3ccc(Cl)cc3F)c2c(=O)n1C [Example 259, (S)-5-(4-chloro-2-fluorophenyl)-7-(3-(difluoromethyl)pyrrolidin-1-yl)-2,3-dimethylpyrido[4,3-d]pyrimidin-4(3H)-one] | –
+++ (Emax>200 and ≤300) | 3000 to 100000 | Cc1nc2cc(N3CCC[C@@H](N(C)C)C3)nc(-c3ccc(Cl)cc3F)c2c(=O)n1C [Example 244, (R)-5-(4-chloro-2-fluorophenyl)-7-(3-(dimethylamino)piperidin-1-yl)-2,3-dimethylpyrido[4,3-d]pyrimidin-4(3H)-one] | –
+++ (Emax>200 and ≤300) | 500 to 3000 | Cc1nc2cc(N3CCO[C@@H]([C@H]4CCO4)C3)nc(-c3ccc(Cl)cc3F)c2c(=O)n1C (single isomer, unassigned) [Example 38] | –
++++ (Emax>300) | 50 to 500 | Cc1nc2cc(N3CCO[C@@H]([C@H]4CCOC4)C3)nc(-c3ccc(Cl)cc3F)c2c(=O)n1C (single isomer, unassigned) [Example 42] | –
++ (Emax>100 and ≤200) | 500 to 3000 | Cc1nc2cc(N3CC[C@H](C(F)(F)F)C3)nc(-c3ccc(Cl)cc3F)c2c(=O)n1C [Example 257, (S)-5-(4-chloro-2-fluorophenyl)-2,3-dimethyl-7-(3-(trifluoromethyl)pyrrolidin-1-yl)pyrido[4,3-d]pyrimidin-4(3H)-one] | –
+++ (Emax>200 and ≤300) | < 50 | Cc1nc2cc(N3C[C@@H](C)O[C@@H](c4cnn(C)c4)C3)nc(-c3ccc(Cl)cc3F)c2c(=O)n1C (single isomer, unassigned) [Example 28] | –
++++ (Emax>300) | 50 to 500 | Cc1nc2cc(N3CCO[C@@H](c4cnn(C)c4)C3)nc(-c3ccc(Cl)c(F)c3)c2c(=O)n1C [Example 7, 5-(4-chloro-3-fluorophenyl)-2,3-dimethyl-7-((2S)-2-(1-methyl-1H-pyrazol-4-yl)-4-morpholinyl)pyrido[4,3-d]pyrimidin-4(3H)-one] | –
++++ (Emax>300) | 500 to 3000 | CCCn1c(C)nc2cc(N3CCO[C@@H](C(F)(F)F)C3)nc(-c3ccc(Cl)cc3F)c2c1=O [Example 179, (R)-5-(4-chloro-2-fluorophenyl)-2-methyl-3-propyl-7-(2-(trifluoromethyl)morpholino)pyrido[4,3-d]pyrimidin-4(3H)-one] | –
+++ (Emax>200 and ≤300) | 50 to 500 | Cc1c([C@@H]2CN(c3cc4nc(C)n(C)c(=O)c4c(-c4ccc(Cl)cc4F)n3)CCO2)cnn1C (single isomer, unassigned) [Example 66] | –
++++ (Emax>300) | 500 to 3000 | Cc1nc2cc(N3C[C@@H](C)O[C@@H](C4CC4)C3)nc(-c3ccc(Cl)cc3F)c2c(=O)n1C (single isomer, unassigned) [Example 34] | –
++++ (Emax>300) | 50 to 500 | Cc1nc2cc(N3CCO[C@@H](c4cnn(C)c4)C3)nc(-c3ccc(Cl)cc3)c2c(=O)n1C [Example 5, 5-(4-chlorophenyl)-2,3-dimethyl-7-((2S)-2-(1-methyl-1H-pyrazol-4-yl)-4-morpholinyl)-pyrido[4,3-d]pyrimidin-4(3H)-one] | –
+++ (Emax>200 and ≤300) | 3000 to 100000 | Cc1nc2cc(N3CCC[C@@H](N4CCC4)C3)nc(-c3ccc(Cl)cc3F)c2c(=O)n1C [Example 246, (R)-7-(3-(azetidin-1-yl)piperidin-1-yl)-5-(4-chloro-2-fluorophenyl)-2,3-dimethylpyrido[4,3-d]pyrimidin-4(3H)-one] | –
++++ (Emax>300) | 50 to 500 | Cc1nc2cc(N3CCC[C@H](c4cnn(C)c4)C3)nc(-c3ccc(Cl)cc3F)c2c(=O)n1C [Example 214, (R)-5-(4-chloro-2-fluorophenyl)-2,3-dimethyl-7-(3-(1-methyl-1H-pyrazol-4-yl)piperidin-1-yl)pyrido[4,3-d]pyrimidin-4(3H)-one] | –
+++ (Emax>200 and ≤300) | < 50 | Cc1nc2cc(N3CCO[C@@H](c4cnn(C)c4)C3)cc(-c3ccc(Cl)cc3F)c2c(=O)n1C [Example 3, 5-(4-chloro-2-fluorophenyl)-2,3-dimethyl-7-((2S)-2-(1-methyl-1H-pyrazol-4-yl)-4-morpholinyl)-4(3H)-quinazolinone] | –
– | 500 to 3000 | Cc1nc2cc(N3CCO[C@@H](c4cnn(C)c4)C3)nc(-c3ccc(C(F)(F)F)nc3)c2c(=O)n1C [Example 17, 2,3-dimethyl-7-((2S)-2-(1-methyl-1H-pyrazol-yl)-4-morpholinyl)-5-(6-(trifluoromethyl)-3-pyridinyl)pyrido[4,3-d]pyrimidin-4(3H)-one] | –
+++ (Emax>200 and ≤300) | 500 to 3000 | Cc1nc2cc(N3CCO[C@@H](c4cnn(C)c4)C3)nc(C3CCCC3)c2c(=O)n1C [Example 160, 5-cyclopentyl-2,3-dimethyl-7-((2S)-2-(1-methyl-1H-pyrazol-4-yl)-4-morpholinyl)pyrido[4,3-d]pyrimidin-4(3H)-one] | –
+++ (Emax>200 and ≤300) | 3000 to 100000 | Cc1nc2cc(N3C[C@@H](C)O[C@@H](c4ccsc4)C3)nc(-c3ccc(Cl)cc3F)c2c(=O)n1C (single isomer, unassigned) [Example 73] | –
– | – | Cc1nc2cc(N3CCO[C@@H](c4cnn(C(F)CF)c4)C3)nc(-c3ccc(Cl)cc3F)c2c(=O)n1C (stereo partly drawn) [Example 135, 5-(4-chloro-2-fluorophenyl)-7-((2S)-2-(1-(1,2-difluoroethyl)-1H-pyrazol-4-yl)-4-morpholinyl)-2,3-dimethylpyrido[4,3-d]pyrimidin-4(3H)-one] | 50 to 500
+++ (Emax>200 and ≤300) | 3000 to 100000 | ethyl (2S,4S)-4-(5-(4-chloro-2-fluorophenyl)-2,3-dimethyl-4-oxo-3,4-dihydropyrido[4,3-d]pyrimidin-7-yl)tetrahydro-2H-pyran-2-carboxylate and ethyl (2R,4R)-4-(5-(4-chloro-2-fluorophenyl)-2,3-dimethyl-4-oxo-3,4-dihydropyrido[4,3-d]pyrimidin-7-yl)tetrahydro-2H-pyran-2-carboxylate [Example 168] | –
